Assay results reported in ChEMBL document CHEMBL5335777 (Eur J Med Chem, 2023).
Calls of active or inactive are those of the source. No cut-off for these calls is given here.

Assays:
[1] = tested on: NCI-H358; experiment: Antiproliferative activity against human NCI-H358 cells harboring heterozygous KRAS G12C mutant assessed as inhibition of cell growth incubated for 72 hrs by MTT assay; assay type: functional, cell-based; details: NCI-H358, 72 h
[2] = Selectivity ratio of IC50 for human BXPC-3 cells harboring wild type KRAS to IC50 for human MIA PaCa-2 cells harboring homozygous KRAS G12C mutant; assay type: functional
[3] = tested on: PANC-1; experiment: Antiproliferative activity against human PANC-1 cells harboring heterozygous KRAS G12D mutant assessed as inhibition of cell growth incubated for 72 hrs by MTT assay; assay type: functional, cell-based; details: PANC-1, 72 h
[4] = Selectivity ratio of IC50 for human BXPC-3 cells harboring wild type KRAS to IC50 for human PANC-1 cells harboring heterozygous KRAS G12D mutant; assay type: functional
[5] = organism: Homo sapiens; experiment: Selectivity ratio of IC50 for human MRC5 cells to IC50 for human MIA PaCa-2 cells harboring homozygous KRAS G12C mutant
[6] = organism: Homo sapiens; experiment: Selectivity ratio of IC50 for human MRC5 cells to IC50 for human NCI-H358 cells harboring heterozygous KRAS G12C mutant
[7] = Selectivity ratio of IC50 for human LCLC-103H cells harboring wild type KRAS to IC50 for human A549 cells harboring homozygous KRAS G12S mutant; assay type: functional
[8] = organism: Homo sapiens; experiment: Selectivity ratio of IC50 for human MRC5 cells to IC50 for human NCI-H1792 cells harboring homozygous KRAS G12C mutant
[9] = Cytotoxicity against human MRC5 cells assessed as inhibition of cell growth incubated for 72 hrs by MTT assay; assay type: toxicity, cell-based
[10] = tested on: SW1573; experiment: Antiproliferative activity against human SW1573 cells harboring homozygous KRAS G12C mutant assessed as inhibition of cell growth incubated for 72 hrs by MTT assay; assay type: functional, cell-based; details: SW1573, 72 h
[11] = tested on: NCI-H1792; experiment: Antiproliferative activity against human NCI-H1792 cells harboring KRAS G12C mutant assessed as reduction in cell viability at 2.5 uM incubated for 72 hrs by MTT assay; assay type: functional, cell-based
[12] = tested on: SW480; experiment: Antiproliferative activity against human SW480 cells harboring homozygous KRAS G12V mutant assessed as inhibition of cell growth incubated for 72 hrs by MTT assay; assay type: functional, cell-based; details: SW480, 72 h
[13] = tested on: MIA PaCa-2; experiment: Antiproliferative activity against human MIA PaCa-2 cells harboring homozygous KRAS G12C mutant assessed as inhibition of cell growth incubated for 72 hrs by MTT assay; assay type: functional, cell-based; details: MIA PaCa-2, 72 h
[14] = Selectivity ratio of IC50 for human LCLC-103H cells harboring wild type KRAS to IC50 for human SW1573 cells harboring homozygous KRAS G12C mutant; assay type: functional
[15] = tested on: LCLC-103H cell line; experiment: Antiproliferative activity against human LCLC-103H cells harboring wild type KRAS assessed as inhibition of cell growth incubated for 72 hrs by MTT assay; assay type: functional, cell-based
[16] = tested on: BXPC-3; experiment: Antiproliferative activity against human BXPC-3 cells harboring wild type KRAS assessed as inhibition of cell growth incubated for 72 hrs by MTT assay; assay type: functional, cell-based; details: BXPC-3, 72 h
[17] = organism: Homo sapiens; experiment: Inhibition of GDP-bound human KRAS 149stop G12C mutant expressed in Escherichia coli BL21 Rosetta cells assessed as inhibition of SOS1 mediated nucleotide exchange at 250 uM measured after 24 hrs by fluorescence based analysis
[18] = tested on: NCI-H1792; experiment: Antiproliferative activity against human NCI-H1792 cells harboring KRAS G12C mutant assessed as cell viability at 25 uM incubated for 72 hrs by MTT assay relative to control; assay type: functional; details: read-out: Activity
[19] = Selectivity ratio of IC50 for human LCLC-103H cells harboring wild type KRAS to IC50 for human NCI-H358 cells harboring heterozygous KRAS G12C mutant; assay type: functional
[20] = Selectivity ratio of IC50 for human MRC5 cells to IC50 for human SW1573 cells harboring homozygous KRAS G12C mutant; assay type: toxicity; details: MRC5 cells versus SW1573 cells (homozygous KRAS G12C mutant), read-out: Ratio IC50
[21] = Selectivity ratio of IC50 for human LCLC-103H cells harboring wild type KRAS to IC50 for human NCI-H1792 cells harboring […] KRAS G12C mutant; assay type: functional
[22] = tested on: A549; experiment: Antiproliferative activity against human A549 cells harboring homozygous KRAS G12S mutant assessed as inhibition of cell growth incubated for 72 hrs by MTT assay; assay type: functional, cell-based; details: A549, 72 h
[23] = organism: Homo sapiens; experiment: Inhibition of GDP-bound human KRAS 149stop G12C mutant expressed in Escherichia coli BL21 Rosetta cells assessed as inhibition of EDTA mediated nucleotide exchange at 250 uM measured after 24 hrs by fluorescence based analysis
[24] = tested on: NCI-H1792; experiment: Antiproliferative activity against human NCI-H1792 cells harboring heterozygous KRAS G12C mutant assessed as inhibition of cell growth incubated for 72 hrs by MTT assay; assay type: functional, cell-based; details: NCI-H1792, 72 h
[25] = Volume of distribution in NOD-SCID mouse at 15 mg/kg, ip administered as single dose and measured upto 48 hrs by HPLC/MS analysis; assay type: ADME, organism-based; details: in vivo
[26] = Cytotoxicity against human CCD-986Sk cells assessed as inhibition of cell growth incubated for 72 hrs by MTT assay; assay type: toxicity, cell-based
[27] = Antiproliferative activity against human HCA-7 cells harboring wild type KRAS assessed as inhibition of cell growth incubated for 72 hrs by MTT assay; assay type: functional, cell-based, HCA7; details: HCA-7, 72 h
[28] = tested on: NCI-H1792; experiment: (§1) Antitumor activity against human NCI-H1792 cells harboring KRAS G12C mutant xenografted in immunodeficient NOD-SCID mouse assessed as reduction in tumor growth at 5 to 30 mg/kg, ip administered for 5 times at 5 mg/kg in first week followed by administration at 20 mg/kg 5 times in second week and further administered 30 mg/kg 3 times in third week measured 17 days post treatment initiation and 35 days post tumor transplantation by digital caliper based analysis relative to control; assay type: functional; design: scale not given: the % may be the effect or the level left; details: dose 5-30 mg/kg, time 17 day
[29] = tested on: LCLC-103H cell line; experiment: as §1, with “LCLC-103H” for “NCI-H1792”, “harboring wild type” for “harboring”, “KRAS” for “KRAS G12C mutant”, “as” for “as reduction in”, “volume” for “growth”, “analysis” for “analysis relative to control”; assay type: functional; details: dose 5-30 mg/kg, time 17 day
[30] = Tmax in NOD-SCID mouse at 15 mg/kg, ip administered as single dose and measured upto 48 hrs by HPLC/MS analysis; assay type: ADME, organism-based; details: in vivo
[31] = AUCt in NOD-SCID mouse at 15 mg/kg, ip administered as single dose and measured upto 48 hrs by HPLC/MS analysis; assay type: ADME, organism-based; design: dose 15 mg/kg, time < 48 hrs, route ip; details: in vivo
[32] = Cytotoxicity against HUVEC cells immortalized with TERT assessed as inhibition of cell growth incubated for 72 hrs by MTT assay; assay type: toxicity, cell-based; details: human
[33] = Half life in NOD-SCID mouse at 15 mg/kg, ip administered as single dose and measured upto 48 hrs by HPLC/MS analysis; assay type: ADME, organism-based; details: in vivo
[34] = Clearance in NOD-SCID mouse at 15 mg/kg, ip administered as single dose and measured upto 48 hrs by HPLC/MS analysis; assay type: ADME, organism-based; details: in vivo
[35] = (§2) Toxicity in immunodeficient NOD-SCID mouse xenografted with human NCI-H1792 cells harboring KRAS G12C mutant assessed as body weight at 5 to 30 mg/kg, ip administered for 5 times at 5 mg/kg in first week followed by administration at 20 mg/kg 5 times in second week and further administered 30 mg/kg 3 times in third week measured 17 days post treatment initiation and 35 days post tumor transplantation (reference value: 6.6 g); assay type: organism-based; details: in vivo, 408 h, dose 5-30 mg/kg, time 17 day
[36] = as §2, with “LCLC-103H” for “NCI-H1792”, “harboring wild type” for “harboring”, “KRAS” for “KRAS G12C mutant”, “2.6” for “6.6”; assay type: organism-based; details: in vivo, 408 h, dose 5-30 mg/kg, time 17 day
[37] = Cmax in NOD-SCID mouse at 15 mg/kg, ip administered as single dose and measured upto 48 hrs by HPLC/MS analysis; assay type: ADME, organism-based; design: time < 48 hrs, dose 15 mg/kg, route ip; details: in vivo

With `C=CC(=O)N1CC(N2CCN(C(=O)CNc3cc(C4(C)CC4)c(Cl)cc3O)CC2)C1` as the compound, how does the IC50 [1] read?
The IC50 was 6.9 µM.

What about the “Ratio IC50” value [2] of the same compound?
The value was 6.4.

And the IC50 [3]?
The IC50 was 58.2 µM.

What about the “Ratio IC50” value [4] of the same compound?
The value was 0.6.

And the Ratio IC50 [5]?
The Ratio IC50 was 13.

And the Ratio IC50 [6]?
The Ratio IC50 was 11.

What about the “Ratio IC50” value [7] of the same compound?
Its value is 1.2.

And the Ratio IC50 [8]?
Its Ratio IC50 is 2.7.

And the IC50 at 72 h [9]?
Its IC50 at 72 h is 75.3 µM.

What about the IC50 [10] of the same compound?
The IC50 was 25.9 µM.

And the Activity [11]?
The Activity was “Active”.

And the IC50 [12]?
The IC50 was 27.8 µM.

And the IC50 [13]?
The IC50 was 5.8 µM.

And the “Ratio IC50” value [14]?
Its value is 1.6.

And the IC50 [15]?
The IC50 was 41.5 µM.

What about the IC50 [16] of the same compound?
The IC50 was 36.8 µM.

And the inhibition [17]?
The inhibition was “Active”.

What about the viability at 25 µM [18] of the same compound?
Its viability at 25 µM is < 50%.

What about the “Ratio IC50” value [19] of the same compound?
The value was 6.

And the selectivity ratio [20]?
The selectivity ratio was 2.9.

What about the “Ratio IC50” value [21] of the same compound?
Its value is 1.5.

What about the IC50 [22] of the same compound?
Its IC50 is 35.2 µM.

And the inhibition [23]?
Its inhibition is “Active”.

What about the IC50 [24] of the same compound?
Its IC50 is 27.9 µM.

For `C=CC(=O)N1CCN(c2ncnc3c(F)c(-c4c(O)cccc4F)c(Cl)cc23)CC1`, which Vd [25] is on record?
Its Vd is 363 mL.

What about the IC50 at 72 h [26] of the same compound?
Its IC50 at 72 h is 52.2 µM.

What about the IC50 [1] of the same compound?
The IC50 was 0.3 µM.

What about the IC50 [27] of the same compound?
Its IC50 is 23.4 µM.

What about the Activity [28] of the same compound?
The Activity was 17.9%.

What about the Activity [29] of the same compound?
Its Activity is 7.9 mm3.

And the Tmax [30]?
The Tmax was 0.25 h.

What about the AUC(0-t) at 48 h [31] of the same compound?
Its AUC(0-t) at 48 h is 3740 ng·h/mL.

What about the Activity [11] of the same compound?
Its Activity is “Active”.

What about the IC50 at 72 h [32] of the same compound?
The IC50 at 72 h was 0.7 µM.

And the IC50 [13]?
The IC50 was 0.5 µM.

And the half-life [33]?
Its half-life is 2.9 h.

And the inhibition [17]?
The inhibition was “Active”.

And the viability at 25 µM [18]?
The viability at 25 µM was < 50%.

And the CL/F [34]?
The CL/F was 1.37 mL/min.

What about the Activity [35] of the same compound?
The Activity was 3.7 g.

And the Activity [36]?
Its Activity is 0.8 g.

What about the inhibition [23] of the same compound?
Its inhibition is “Active”.

What about the Cmax [37] of the same compound?
Its Cmax is 5850 ng/mL.

What about the IC50 [24] of the same compound?
Its IC50 is 10.9 µM.
